Entries after “also recorded” stand apart in the source; their conditions may differ.
Assays:
Assay type in all cases: in vivo, rat
[1] = tested on: Intercellular Adhesion Molecule-1 (ICAM-1); experiment: Assay C: ICAM-1 mRNA, TaqMan; conditions: aldosterone+salt alone or with eplerenone 100 mg/kg/day; 7, 14, 30 days
Procedure: (§1) The procedure of Assay B was expanded upon in a further study. […] Myocardial tissue from animals in each treatment group was examined after 7, 14, or 30 days of treatment.
(§2) Potassium chloride supplementation was added to the saline solution in order to prevent the potential hypokalemia associated with aldosterone excess.
(§3) Treatment At the time of the surgery, an Alzet 2002 osmotic minipump (Alza Corp., Palo Alto, Calif.) containing either vehicle (9% ethanol/87% propylene glycol/4% dH2O) or 1.0 mg/mL d-aldosterone (Sigma Chemical, St. Louis, Mo.) was inserted subcutaneously at the nape of the neck. Aldosterone was administered at a dose of 0.75 µg/hour. […]
(§4) The fluorogenic 5′-nuclease assay (TaqMan PCR) using Applied Biosystems' 7700 Sequence Detection System (Applied Biosystems, Foster City, Calif.) allowed for real time detection/quantitation of a specific gene by monitoring the increase in fluorescence of a gene-specific, dye-labeled oligonucleotide probe. […] When the probe was annealed to the target gene, fluorescence of 6FAM was prevented by the close proximity of TAMRA. The exonuclease activity of Taq polymerase released the dyes from the oligonucleotide probe by displacing the probe from the target sequence resulting in fluorescence excitation in direct proportion to the amount of target message present. […]

[2] = tested on: Monocyte Chemoattractant Protein-1 (MCP-1); experiment: Assay C: MCP-1 mRNA, TaqMan; conditions: 7, 14, 30 days; aldosterone+salt alone or with eplerenone 100 mg/kg/day
Procedure: as §1, §2, §3, §4

[3] = Assay C: body weight, ventricle weights, tibia length (myocardial hypertrophy); conditions: for Ventricular hypertrophy (absolute ventricular weights, ventricular weight to tibia length ratios): aldosterone+salt alone or with eplerenone 100 mg/kg/day, 7, 14, 30 days; for Body weight: aldosterone+salt at days 7, 14 and 30 vs vehicle+salt, eplerenone 100 mg/kg/day effect at day 30
Procedure: The procedure of Assay B was expanded upon in a further study. […] Myocardial tissue from animals in each treatment group was examined after 7, 14, or 30 days of treatment. […] Lesions were preceded by the expression and progressive upregulation of proinflammatory molecules. […] Male Sprague-Dawley rats, weighing 230 to 250 g, (Harlan Sprague-Dawley Industries, Indianapolis, Ind.) were housed in a room 12-hours light/12-hours dark daily cycle at an ambient temperature of 22±1° C. (n=96). Animals were allowed one week to adjust after arrival and had free access to TEKLAD 22/5 rodent diet (Harlan TEKLAD, Madison, Wis.) and tap water until the initiation of the experiment. Prior to surgery the animals were individually weighed and placed in one of the following groups: […] Potassium chloride supplementation was added to the saline solution in order to prevent the potential hypokalemia associated with aldosterone excess. Treatment At the time of the surgery, an Alzet 2002 osmotic minipump (Alza Corp., Palo Alto, Calif.) containing either vehicle (9% ethanol/87% propylene glycol/4% dH2O) or 1.0 mg/mL d-aldosterone (Sigma Chemical, St. Louis, Mo.) was inserted subcutaneously at the nape of the neck. Aldosterone was administered at a dose of 0.75 µg/hour. […] Animals were sacrificed from each group (n=8-13) after 7, 14, or 30 days of treatment. At the cessation of each experimental time point, the animals were anesthetized with pentobarbital (65 mg/kg i.p., Sigma Chemical, St. Louis Mo.) and weighed with a Mettler PM6000 balance (Mettler-Toledo, Inc., Hightstown, N.J.). The abdominal cavity was opened to expose the abdominal aorta. A 16-gauge needle was inserted into the abdominal aorta and the animal was exsanguinated into a 12 cc syringe. The blood sample was transferred immediately into glass serum collection tubes (Terumo Medical Corp., Elkton, Md.) for drug level analysis. The samples were placed on wet ice until sample collection was complete and centrifuged for 15 min at 3000 rev/min at 4° C. Following exsanguination, hearts and kidneys were isolated, removed, rinsed in cold phosphate-buffered saline, and blotted dry. Kidneys were immediately bifurcated through the long axis with a razor blade and placed in 10% neutral buffered formalin (NBF, Richard-Allen Scientific, Kalamazoo, Mich.). For the hearts, the right ventricle (RV) was cut away from the left ventricle (LV), both ventricles were weighed using a Mettler AE163 balance (Mettler-Toledo, Inc., Hightstown, N.J.), and the RV was placed in 10% NBF. […] Final wet trimming was completed after 3-4 days fixation where a second 2 mm coronal slab was removed for hydroxyproline analysis and a third 2mm slab was removed from the equatorial region for histology.

osteopontin = experiment: Assay A: osteopontin immunostaining of hearts; conditions: angiotensin II-infused, saline-drinking Wistar rats; eplerenone 100 mpk; aldosterone replacement in adrenalectomized rats

Row | SMILES | ICAM-1 mRNA expression in myocardium [1] | MCP-1 mRNA expression in myocardium [2] | Final Body Weight ([3]; 7 days of treatment, uninephrectomized Sprague-Dawley rats, 1% NaCl-0.3% KCl, aldosterone infusion alone or with eplerenone 100 mg/kg/day, individual rats and group Mean) [g] | Ventricular hypertrophy (absolute ventricular weights, ventricular weight to tibia length ratios) [3] | Body weight [3] | Osteopontin expression in the heart (immunostaining) (osteopontin)
1 | COC(=O)[C@@H]1CC2=CC(=O)CC[C@]2(C)[C@@]23O[C@@H]2C[C@@]2(C)[C@@H](CC[C@@]24CCC(=O)O4)[C@H]13 [eplerenone] | significantly reduced; also recorded: inhibition of early time-course expression of myocardial ICAM-1 and VCAM-1 | significantly reduced; also recorded: inhibition of early time-course expression of myocardial MCP-1 | 286 | did not impact absolute ventricular weights or ventricular weight to tibia length ratios | significantly attenuated | prevented osteopontin expression
2 | C[C@]12CCC(=O)C=C1CC[C@@H]1[C@@H]2[C@@H](O)C[C@]2(C=O)[C@@H](C(=O)CO)CC[C@@H]12 [aldosterone] | upregulated at day 14 and 30 | significantly increased | – | Significant left and right ventricular hypertrophy | significantly lower | restored osteopontin expression

Reference: patent US20040037806A1, “Aldosterone blocker therapy to prevent or treat inflammation-related disorders” (Pharmacia Corporation, priority 2002, published 2004)
